*1 amine or outer side, *2 acyl side, *3 side chain or, on linkers, in order; H or OH if unused. Where a SMILES comes first, the peptide text is derived from it. [ ]: non-standard residue; d: D form. The star is where a group is joined. 2Nal = N[CH](Cc1ccc2ccccc2c1)C(=O)O; X2 = C=CCOCC(N[*:1])C(=O)C(=O)[*:2]; Ser(allyl) = C=CCOC[CH](N)C(=O)O; PhAc = O=C(Cc1ccccc1)*; Allyl = C=CC*
Columns and labels:
Cathepsin L = Cathepsin L (Homo sapiens, UniProt P07711); assay: Cathepsin L enzyme assay; format: biochemical; conditions: Ki by Morrison equation; pH 5.5, substrate Z-Phe-Arg-Amc; read-out: Cat L
Cathepsin L, sequence (P07711 114-333, species assumed): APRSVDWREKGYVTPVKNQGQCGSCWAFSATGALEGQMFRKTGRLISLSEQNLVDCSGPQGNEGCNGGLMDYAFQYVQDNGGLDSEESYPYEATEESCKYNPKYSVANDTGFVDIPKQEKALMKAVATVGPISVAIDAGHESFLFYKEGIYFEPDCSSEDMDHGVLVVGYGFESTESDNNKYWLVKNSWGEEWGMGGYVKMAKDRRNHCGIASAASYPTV
Excerpt: Two wells contained DMSO only for controls.
Velocity was converted to μM/sec.

Calpain = Calpain enzyme assay; format: biochemical; conditions: Ki by Morrison equation; pH 7.5, 5 mM CaCl2
[1] = tested on: EBOV WT (Ebola Wild Type); assay: microbe, parasite or virus in culture; format: cell-based; conditions: Zaire ebolavirus, read-out: EBOV WT (μM) (Ebola Wild Type)
MERS WT = assay: microbe, parasite or virus in culture; format: cell-based; conditions: Middle East respiratory syndrome-related coronavirus, read-out: MERS WT (μM)
Cathepsin B = Cathepsin B (Homo sapiens, UniProt P07858); assay: Cathepsin B enzyme assay; conditions: Cat B (μM), Ki by Morrison equation; pH 6.0, substrate Z-Phe-Arg-Amc
Cat S = Cat S (Homo sapiens, UniProt P25774); assay: Cat S inhibition; format: biochemical
Cat S, sequence (P25774 115-331): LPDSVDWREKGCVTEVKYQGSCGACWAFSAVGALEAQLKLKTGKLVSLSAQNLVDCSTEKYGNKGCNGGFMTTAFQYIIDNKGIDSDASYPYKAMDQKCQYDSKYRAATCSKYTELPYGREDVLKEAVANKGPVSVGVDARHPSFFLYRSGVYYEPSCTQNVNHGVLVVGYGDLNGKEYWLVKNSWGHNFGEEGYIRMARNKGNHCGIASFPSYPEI

Cat K = target: T1, Cat K (Homo sapiens, UniProt P43235); assay: Cat K inhibition; format: biochemical
T1 sequence (P43235 115-329): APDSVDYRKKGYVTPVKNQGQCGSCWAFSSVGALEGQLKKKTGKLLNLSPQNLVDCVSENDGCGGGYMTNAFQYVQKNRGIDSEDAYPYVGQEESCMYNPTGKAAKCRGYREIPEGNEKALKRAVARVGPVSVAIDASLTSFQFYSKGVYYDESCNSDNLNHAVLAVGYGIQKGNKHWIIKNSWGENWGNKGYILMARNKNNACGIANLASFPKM

Compound	Ki (Cathepsin L) [nM]	Ki (Calpain) [nM]	IC50 [1] [µM]	IC50 (MERS WT) [µM]	Ki (Cathepsin B) [µM]	Ki (Cat S) [nM]	Ki (Cat K) [nM]
CC(C)CC(NC(=O)Cc1ccccc1)C(=O)NC(C)C(=O)C(=O)NC(C)C(=O)NC(C)(C)C(N)=O (stereo not drawn) [PHELIX183, N-(4-((1-((1-amino-2-methyl-1-oxopropan-2-yl)amino)-1-oxopropan-2-yl)amino)-3,4-dioxobutan-2-yl)-4-methyl-2-(2-phenylacetamido)pentanamide]	195	153	29.1	407	7.74		
CC(C)CC(NC(=O)OCc1ccccc1)C(=O)NC(C)C(=O)C(=O)NCCC(=O)NC(Cc1cccc(C#N)c1)C(N)=O (stereo not drawn) [PHELIX185, benzyl (1-((4-((3-((1-amino-3-(3-cyanophenyl)-1-oxopropan-2-yl)amino)-3-oxopropyl)amino)-3,4-dioxobutan-2-yl)amino)-4-methyl-1-oxopentan-2-yl)carbamate]	102	68.4	13.3	> 10	2.1		
CC(C)CC(NC(=O)OCc1ccccc1)C(=O)NC(C)C(=O)C(=O)N1CCC(C(=O)NC(Cc2ccccc2)C(N)=O)CC1 (stereo not drawn) [PHELIX186, benzyl (1-((4-(4-((1-amino-1-oxo-3-phenylpropan-2-yl)carbamoyl)piperidin-1-yl)-3,4-dioxobutan-2-yl)amino)-4-methyl-1-oxopentan-2-yl)carbamate]	4320	18100	57.5	> 10	60		
CC(C)CC(NC(=O)OCc1ccccc1)C(=O)NC(C)C(=O)C(=O)NC(Cc1ccncc1)C(N)=O (stereo not drawn) [PHELIX198, benzyl (1-((4-((1-amino-1-oxo-3-(pyridin-4-yl)propan-2-yl)amino)-3,4-dioxobutan-2-yl)amino)-4-methyl-1-oxopentan-2-yl)carbamate]	33.9	22	4.03	> 10	7.3		
C=CCOCC(NC(=O)Cc1ccccc1)C(=O)NC(CC(C)C)C(=O)NC(COCC=C)C(=O)C(=O)NCC(=O)NC(Cc1ccc2ccccc2c1)C(N)=O (stereo not drawn) [PHELIX200, 2-(3-(allyloxy)-2-(2-phenylacetamido)propanamido)-N-(1-(allyloxy)-4-((2-((1-amino-3-(naphthalen-2-yl)-1-oxopropan-2-yl)amino)-2-oxoethyl)amino)-3,4-dioxobutan-2-yl)-4-methylpentanamide] (PhAc-[Ser(allyl)]L[X2]G[2Nal]-NH2; configuration not given here)	1.51	6.57	6.4	> 10	0.0881		
C=CCOCC(NC(=O)C(CC(C)C)NC(=O)C(Cc1ccc(OCC=C)cc1)NC(=O)Cc1ccccc1)C(=O)C(=O)NCC(=O)NC(Cc1ccc2ccccc2c1)C(N)=O (stereo not drawn) [PHELIX202, N-(1-(allyloxy)-4-((2-((1-amino-3-(naphthalen-2-yl)-1-oxopropan-2-yl)amino)-2-oxoethyl)amino)-3,4-dioxobutan-2-yl)-2-(3-(4-(allyloxy)phenyl)-2-(2-phenylacetamido)propanamido)-4-methylpentanamide] (PhAc-Y(Allyl)L[X2]G[2Nal]-NH2; configuration not given here)	24	25.3	> 10	> 10	0.692		
CC(NC(=O)C(Cc1cccnc1)NC(=O)Cc1ccccc1)C(=O)C(=O)NC(Cc1ccccc1)C(=O)NC(C)(C)C(N)=O (stereo not drawn) [PHELIX211, N-(1-((1-amino-2-methyl-1-oxopropan-2-yl)amino)-1-oxo-3-phenylpropan-2-yl)-2-oxo-3-(2-(2-phenylacetamido)-3-(pyridin-3-yl)propanamido)butanamide]	218	> 10000	209	> 10	0.532		
CC(NC(=O)[C@H](Cc1ccccn1)NC(=O)Cc1ccccc1)C(=O)C(=O)N[C@@H](Cc1ccccc1)C(=O)N[C@@H](Cc1ccccc1)C(N)=O (stereo partly drawn) [PHELIX219, N-(1-((1-amino-1-oxo-3-phenylpropan-2-yl)amino)-1-oxo-3-phenylpropan-2-yl)-2-oxo-3-(2-(2-phenylacetamido)-3-(pyridin-2-yl)propanamido)butanamide]	2910	> 10000	> 10	> 10	7.52		
CC(NC(=O)C(Cc1ccccc1)NC(=O)c1ccccc1F)C(=O)C(=O)NC(Cc1ccccc1)C(=O)NC(C)(C)C(N)=O (stereo not drawn) [PHELIX224, N-(1-((4-((1-((1-amino-2-methyl-1-oxopropan-2-yl)amino)-1-oxo-3-phenylpropan-2-yl)amino)-3,4-dioxobutan-2-yl)amino)-1-oxo-3-phenylpropan-2-yl)-2-fluorobenzamide]	45.7	> 10000	11	> 10	0.422	33.2	
C=CCOCC(NC(=O)C(=O)C(COCC=C)NC(=O)C(CC(C)C)NC(=O)OCc1ccccc1)C(=O)NC(Cc1ccc2ccccc2c1)C(N)=O (stereo not drawn) [PHELIX228, benzyl (1-((1-(allyloxy)-4-((3-(allyloxy)-1-((1-amino-3-(naphthalen-2-yl)-1-oxopropan-2-yl)amino)-1-oxopropan-2-yl)amino)-3,4-dioxobutan-2-yl)amino)-4-methyl-1-oxopentan-2-yl)carbamate]	0.08	25.3	3.02		0.276		
CC(NC(=O)C(Cc1ccccc1)NC(=O)Cc1ccccc1)C(=O)C(=O)NC(Cc1ccccc1)C(=O)NC(C)(C)C(=O)NCCc1ccccc1 (stereo not drawn) [PHELIX230, N-(1-((2-methyl-1-oxo-1-(phenethylamino)propan-2-yl)amino)-1-oxo-3-phenylpropan-2-yl)-2-oxo-3-(3-phenyl-2-(2-phenylacetamido)propanamido)butanamide]	6.78	> 10000			0.236	11.5	310
CC(NC(=O)C(Cc1ccccc1)NC(=O)Cc1ccccc1)C(=O)C(=O)NC(Cc1ccccc1)C(=O)NC(C)(C)C(=O)NCCN1CCOCC1 (stereo not drawn) [PHELIX231, N-(1-((2-methyl-1-((2-morpholinoethyl)amino)-1-oxopropan-2-yl)amino)-1-oxo-3-phenylpropan-2-yl)-2-oxo-3-(3-phenyl-2-(2-phenylacetamido)propanamido)butanamide]	13.7	3790			2.3	200	4890
CC(C)CC(=O)NC(Cc1ccccc1)C(=O)NC(C)C(=O)C(=O)NC(Cc1ccccc1)C(=O)NC(C)(C)C(N)=O (stereo not drawn) [PHELIX235, N-(1-((1-amino-2-methyl-1-oxopropan-2-yl)amino)-1-oxo-3-phenylpropan-2-yl)-3-(2-(3-methylbutanamido)-3-phenylpropanamido)-2-oxobutanamide]	236	> 10000			0.644	28.9	
CCCCC(=O)NC(Cc1ccccc1)C(=O)NC(C)C(=O)C(=O)NC(Cc1ccccc1)C(=O)NC(C)(C)C(N)=O (stereo not drawn) [PHELIX236, N-(1-((4-((1-((1-amino-2-methyl-1-oxopropan-2-yl)amino)-1-oxo-3-phenylpropan-2-yl)amino)-3,4-dioxobutan-2-yl)amino)-1-oxo-3-phenylpropan-2-yl)pentanamide]	1720	> 10000			> 10	260	
CC(NC(=O)C(Cc1ccccc1)NC(=O)Cc1ccccc1)C(=O)C(=O)NC(Cc1ccc(-c2ccccc2)cc1)C(=O)NC(C)(C)C(N)=O (stereo not drawn) [PHELIX241, N-(3-([1,1′-biphenyl]-4-yl)-1-((1-amino-2-methyl-1-oxopropan-2-yl)amino)-1-oxopropan-2-yl)-2-oxo-3-(3-phenyl-2-(2-phenylacetamido)propanamido)butanamide]	1360	> 10000			> 10	2740	
CCCCC(NC(=O)C(=O)C(C)NC(=O)C(Cc1ccccc1)NC(=O)Cc1ccccc1)C(=O)NC(C)(C)C(N)=O (stereo not drawn) [PHELIX242, N-(1-amino-2-methyl-1-oxopropan-2-yl)-2-(2-oxo-3-(3-phenyl-2-(2-phenylacetamido)propanamido)butanamido)hexanamide]	7520	> 10000			> 10	555	
CCC(C)C(NC(=O)C(CC(C)C)NC(=O)C(Cc1ccccc1)NC(=O)OCc1ccccc1)C(=O)C(=O)NC(CCCNC(=N)N)C(N)=O (stereo not drawn) [PHELIX268, benzyl (1-amino-10-(sec-butyl)-6-carbamoyl-1-imino-13-isobutyl-8,9,12,15-tetraoxo-17-phenyl-2,7,11,14-tetraazaheptadecan-16-yl)carbamate]	0.95	10.6		> 30	0.171		
C=CCOC(=O)NCCCCC(NC(=O)C(=O)C(NC(=O)C(CC(C)C)NC(=O)C(Cc1ccccc1)NC(=O)OCc1ccccc1)C(C)CC)C(N)=O (stereo not drawn) [PHELIX269, benzyl (15-(sec-butyl)-11-carbamoyl-18-isobutyl-5,13,14,17,20-pentaoxo-22-phenyl-4-oxa-6,12,16,19-tetraazadocos-1-en-21-yl)carbamate]	4.13	4.34		> 30	0.763		
